Assay results as given in ChEMBL document CHEMBL3046418, “Synthesis and Herbicidal Activity of Sulfonylurea Compounds with Imidazo [1, 2-a] pyridine Moiety” (2001).

What was measured:
Assay type in all cases: functional
Bromus tectorum [1] = experiment: Herbicidal activity against Bromus tectorum after 3 weeks by post-emergence greenhouse test; parameters: concentration or dose not given beside the values
Triticum aestivum [2] = experiment: Phytotoxic activity against Triticum aestivum (wheat) after 4 weeks by pre-emergence greenhouse test
Matricaria chamomilla [3] = experiment: Herbicidal activity against Matricaria chamomilla after 3 weeks by post-emergence greenhouse test; parameters: concentration or dose not given beside the values
Chenopodium album [4] = experiment: Herbicidal activity against Chenopodium album after 3 weeks by post-emergence greenhouse test; parameters: concentration or dose not given beside the values
Triticum aestivum [5] = experiment: Phytotoxic activity against Triticum aestivum (wheat) after 3 weeks by post-emergence greenhouse test; parameters: concentration or dose not given beside the values
Chenopodium album [6] = experiment: Herbicidal activity against Chenopodium album after 4 weeks by pre-emergence greenhouse test; parameters: concentration or dose not given beside the values
Alopecurus myosuroides [7] = experiment: Herbicidal activity against Alopecurus myosuroides after 4 weeks by pre-emergence greenhouse test; parameters: concentration or dose not given beside the values
Alopecurus myosuroides [8] = experiment: Herbicidal activity against Alopecurus myosuroides after 3 weeks by post-emergence greenhouse test; parameters: concentration or dose not given beside the values
Avena fatua [9] = experiment: Herbicidal activity against Avena fatua after 3 weeks by post-emergence greenhouse test; parameters: concentration or dose not given beside the values
Matricaria chamomilla [10] = experiment: Herbicidal activity against Matricaria chamomilla after 4 weeks by pre-emergence greenhouse test; parameters: concentration or dose not given beside the values
Stellaria media [11] = experiment: Herbicidal activity against Stellaria media after 3 weeks by post-emergence greenhouse test; parameters: concentration or dose not given beside the values
Stellaria media [12] = experiment: Herbicidal activity against Stellaria media after 4 weeks by pre-emergence greenhouse test; parameters: concentration or dose not given beside the values
Bromus tectorum [13] = experiment: Herbicidal activity against Bromus tectorum after 4 weeks by pre-emergence greenhouse test; parameters: concentration or dose not given beside the values
Mutarda arvensis [14] = experiment: Herbicidal activity against Sinapis arvensis after 4 weeks by pre-emergence greenhouse test; parameters: concentration or dose not given beside the values
Avena fatua [15] = experiment: Herbicidal activity against Avena fatua after 4 weeks by pre-emergence greenhouse test; parameters: concentration or dose not given beside the values
Mutarda arvensis [16] = experiment: Herbicidal activity against Sinapis arvensis after 3 weeks by post-emergence greenhouse test; parameters: concentration or dose not given beside the values

SMILES | Activity (Bromus tectorum [1]) | Phytotoxicity (Triticum aestivum [2]) | Activity (Matricaria chamomilla [3]) | Activity (Chenopodium album [4]) | Activity (Triticum aestivum [5]) | Activity (Chenopodium album [6]) | Activity (Alopecurus myosuroides [7]) | Activity (Alopecurus myosuroides [8]) | Activity (Avena fatua [9]) | Activity (Matricaria chamomilla [10]) | Activity (Stellaria media [11]) | Activity (Stellaria media [12]) | Activity (Bromus tectorum [13]) | Activity (Mutarda arvensis [14]) | Activity (Avena fatua [15]) | Activity (Mutarda arvensis [16])
CCS(=O)(=O)c1nc2ccccn2c1S(=O)(=O)NC(=O)Nc1nc(C)cc(C)n1 | 51% | 0% | 1% | 51% | 1% | 1% | 0% | 51% | 51% | 1% | 1% | 0% | 1% | 51% | 0% | 76%
CCS(=O)(=O)c1nc2ccccn2c1S(=O)(=O)NC(=O)Nc1nc(Cl)cc(OC)n1 | 51% | 0% | 1% | 1% | 0% | 0% | 1% | 51% | 1% | 51% | 1% | 1% | 1% | 76% | 0% | 100%
COc1cc(OC)nc(NC(=O)NS(=O)(=O)c2c(S(=O)(=O)c3ccccc3)nc3ccccn23)n1 | 0% | 0% | 1% | 0% | 0% | 0% | 0% | 0% | 0% | 1% | 1% | 0% | 0% | 1% | 0% | 51%
COc1cc(OC)nc(NC(=O)NS(=O)(=O)c2c([S+]([O-])c3ccccc3)nc3ccccn23)n1 (stereo unspecified) | 1% | 0% | 1% | 0% | 0% | 0% | 0% | 1% | 0% | 1% | 1% | 0% | 0% | 1% | 0% | 51%
COc1cc(OC)nc(NC(=O)NS(=O)(=O)c2c(Sc3ccccc3)nc3ccccn23)n1 | 0% | 0% | 1% | 0% | 1% | 0% | 0% | 0% | 0% | 51% | 1% | 0% | 0% | 1% | 0% | 51%
COc1cc(OC)nc(NC(=O)NS(=O)(=O)c2c(S(=O)(=O)C(C)C)nc3ccccn23)n1 | 51% | 0% | 51% | 1% | 0% | 76% | 88% | 88% | 1% | 88% | 76% | 51% | 51% | 88% | 1% | 51%
COc1cc(OC)nc(NC(=O)NS(=O)(=O)c2c([S+]([O-])C(C)C)nc3ccccn23)n1 (stereo unspecified) | 1% | 0% | 1% | 1% | 0% | 0% | 0% | 1% | 0% | 1% | 1% | 0% | 0% | 1% | 0% | 1%
COc1cc(OC)nc(NC(=O)NS(=O)(=O)c2c(SC(C)C)nc3ccccn23)n1 | 1% | 0% | 51% | 1% | 0% | 1% | 0% | 1% | 0% | 88% | 1% | 0% | 0% | 1% | 0% | 51%
CCCS(=O)(=O)c1nc2ccccn2c1S(=O)(=O)NC(=O)Nc1nc(OC)cc(OC)n1 | 51% | 0% | 51% | 0% | 0% | 0% | 76% | 76% | 1% | 88% | 76% | 76% | 1% | 51% | 0% | 76%
CCC[S+]([O-])c1nc2ccccn2c1S(=O)(=O)NC(=O)Nc1nc(OC)cc(OC)n1 (stereo unspecified) | 1% | 0% | 1% | 1% | 0% | 0% | 0% | 1% | 0% | 76% | 51% | 0% | 0% | 1% | 0% | 51%
CCCSc1nc2ccccn2c1S(=O)(=O)NC(=O)Nc1nc(OC)cc(OC)n1 | 1% | 0% | 0% | 0% | 0% | 0% | 1% | 1% | 0% | 88% | 1% | 0% | 0% | 1% | 0% | 51%
CC[S+]([O-])c1nc2ccccn2c1S(=O)(=O)NC(=O)Nc1nc(OC)cc(OC)n1 (stereo unspecified) | 51% | 0% | 76% | 1% | 0% | 1% | 1% | 1% | 0% | 88% | 1% | 1% | 0% | 1% | 0% | 51%
CCSc1nc2ccccn2c1S(=O)(=O)NC(=O)Nc1nc(OC)cc(OC)n1 | 1% | 0% | 51% | 1% | 0% | 1% | 51% | 51% | 1% | 88% | 1% | 0% | 0% | 51% | 0% | 76%
COc1cc(OC)nc(NC(=O)NS(=O)(=O)c2c(S(C)(=O)=O)nc3ccccn23)n1 | 76% | 0% | 88% | 1% | 1% | 1% | 76% | 76% | 1% | 88% | 76% | 51% | 76% | 100% | 1% | 88%
COc1cc(OC)nc(NC(=O)NS(=O)(=O)c2c([S+](C)[O-])nc3ccccn23)n1 (stereo unspecified) | 1% | 0% | 76% | 0% | 0% | 0% | 0% | 0% | 0% | 51% | 0% | 0% | 0% | 51% | 0% | 76%
COc1cc(OC)nc(NC(=O)NS(=O)(=O)c2c(SC)nc3ccccn23)n1 | 1% | 0% | 76% | 0% | 0% | 51% | 1% | 1% | 0% | 88% | 1% | 51% | 0% | 1% | 0% | 88%
